Assays:
[1] = even at doses several thousand times higher than the ED50 of HU-210; cited from earlier work
[2] = test system: transient middle cerebral artery occlusion in rats; experiment: Transient middle cerebral artery occlusion (MCAo), infarct size evaluation; type: in vivo; conditions: for Mortality rate: 5 mg/kg IV at 2+0 hours; for reduction of infarct size: IV, one week after the ischemic insult
Source text: Experimental design. The design was a randomized one, performed in a masked fashion as to whether drug or vehicle was being given, and an attempt was made to generate approximately equal numbers of drug- and vehicle-treated animals.
• a. Male rats (8 /treatment group) 320-380 gr. (Harlan Israel). • b. Halothane (Rhone Poulenc France) • c. Pentobarbitone (Pental Veterinary, CTS Israel). • d. Poly - L - Lysine (Sigma, USA). • e. Silk suture material 3-0 and 4-0. • f. Nylon (Polyamid) suture material 3-0. Four cm pieces were cut and positioned in a solution of 1% Poly - L - Lysine for 1 minute and dried in an oven (60 ° C) for 60 minutes. The tip of each piece was rounded under a flame. • g. Saline (Teva Medical). • h. Blank cremophor ethanol cosolvent (Pharmos). • i. Dexanabinol in cremophor ethanol cosolvent 50 mg/ml. (Both Dexanabinol and its vehicle were diluted in saline prior to drug administration. • j. Analogs PRS-211,092, PRS-211,095, PRS-211,128 PRS-211,132 and PRS-211,220 in cremophor ethanol cosolvent, 50 mg/ml. • k. The analogs were diluted in saline prior to drug administration.
• a. Surgical details of the MCAo method used for testing dexanabinol analogs, are presented in Belayev, et al., (Belayev, Busto, Weizhao, and Ginsberg, Stroke 26:2313-2319, 1995) which is incorporated herein in its entirety by reference. • b. Two hours after the start of MCAO, the animals were reanesthetized with halothane, the neck wound was re-opened and the nylon thread pulled out of the Internal carotid artery (ICA). The skin wound was then closed with 3-0 silk suture material and the animals allowed to recover from the anesthesia. • c. Three sets of animals were tested. In the first test immediately (2+0 hours) before thread removal the animals were injected IV with either analogs PRS-211,095, PRS-211,128, PRS-211,132, or Dexanabinol (PRS-211,007) each at a dosage of 5 mg/kg. One group of animals was treated with 5ml/kg vehicle alone. In another group, the animals subjected to "sham" operation, the suture was passed into the ICA, as described above, but immediately withdrawn. In the second set dexanabinol, PRS-211,092, PRS-211,095 and PRS-211,220 were used, at 2+0 hours. In the third set dexanabinol, PRS-211,092, PRS-211,095 and PRS-211,220 were administered 1 hour after thread removal (2+1 hours). Laser Doppler Flow (LDF) determined the success of MCAo - a drop of more then 50% in cerebral blood flow was considered as a sign of successful MCAo. Although LDF was a helpful corroborative sign, clinical outcome remained the final inclusion/exclusion criterion, since, with the exception of the PRS-211,220 staircase study, LDF was introduced only after initiation of the study.
A detailed investigation of neurological performance was carried out on the first, third and the 7th day after the MCAo. Two parameters were examined: posture and the flexion reflex (based on Nokon and Chuang, NeuroReport 9, 1998: 2081-2084). Animals were scored according to their performance:
One week after the ischemic insult, animals were euthanized with pentobarbitone 100 mg/kg IP. The animals were perfused through the heart with heparinized 4% formaldehyde solution in PBS (pH 7.4). Brains were then removed, and kept in the same solution before preparation for histological evaluation of the brain infarct volume.

[3] = test system: kainic acid; experiment: Radioligand binding: inhibition of kainic acid binding to membranes; set-up: species or system rat
[4] = test system: ear edema model in mice; experiment: Ear edema model; type: in vivo; conditions: Mus musculus, Croton oil (CO) as inducer, IP
Source text: Evaluation of the therapeutic effects of the novel PRS-211 compounds has now been carried out in a series of experimental systems to support the utility of these drugs as neuroprotectants, anti-inflammatory agents and anti-oxidative agents. These effects have been evaluated both in vitro and in vivo, and have been corroborated utilizing the following systems: • (a) Binding to the NMDA receptor linked channel: Non competitive antagonists of NMDA, the primary example of which is the compound MK-801, bind to a site within the NMDA receptor channel thus preventing the activation of the receptor-channel complex and the consequent neurotoxicity. The ability of various compounds to compete with the binding of tritium labeled MK-801 to brain membranes is considered a measure of their potency as NMDA non-competitive antagonists. • (b) Inhibition of prostaglandin production: The inhibitory effect of the new derivatives of Dexanabinol on prostaglandin synthesis is evaluated in macrophage cell cultures following LPS exposure to induce the inflammatory response. These assays are an indication of the anti-inflammatory activity of the individual analogs. • (c) Inhibition of Tumor Necrosis Factor Alpha: Specific aspects of the inflammatory response cascade are mediated by the cytokine TNFα. Inhibition of TNFα production and/or inhibition of TNFα release by the new analogs are assayed in macrophage cell cultures activated with LPS. This serves as another indication of the general anti-inflammatory potential of the novel compounds. • (d) Nitric Oxide Assay: As one aspect of the anti-oxidative potential of the novel analogs they were tested for their ability to inhibit the enzyme nitric oxide synthase (NOS). This assay can also serve as another indication of the anti-inflammatory cascade, as well as the anti-oxidative mechanisms. • (e) Ear Edema model: The anti-inflammatory activity of the new analogs is screened using an ear edema model in mice. This test system utilizes Croton oil or Arachidonic acid as inflammation inducers. The ability of the test compounds to prevent or diminish the inflammatory response to these stimulants is indicative of their systemic anti-inflammatory capability. • (f) Improved clinical outcome after closed head injury in rats: Severe head injury is associated with high mortality and severe neurological impairment. Animals subjected to head trauma in a controlled fashion serve as models in which to test drugs of therapeutic potential. Test compounds can be evaluated both for improved clinical outcome and for reduction of edema induced by closed head injury. The ability of compounds to reduce the severity of neurological symptoms and to reduce brain edema is considered a measure of their potency in reducing brain damage. • (g) Transient Middle cerebral artery occlusion (MCAo): The middle cerebral artery is the cerebral blood vessel most susceptible to stroke in humans. In animals, coagulation, permanent ligation or permanent placement of an occluding thread in the artery produces a permanent focal stroke affecting the MCA territory. Transient ligation or occlusion results in transient focal stroke. Both transient and permanent focal strokes result in varying degrees of edema and infarction in the affected brain regions. The ability of compounds to reduce the volumes of edema and infarction is considered a measure of their potential as anti-stroke treatment. • (h) Optic Nerve Crush: Application of mechanical pressure to the rat optical nerve results in crush injury of the axons, which is accompanied by immediate changes in oxidative metabolism and delayed axonal death and blindness. […]

[5] = test system: AMPA; experiment: Radioligand binding: inhibition of AMPA binding to membranes; set-up: species or system rat

CCCCCCC(C)(C)c1cc(O)c2c(c1)OC(C)(C)[C@H]1CC=C(CO)C[C@H]21 [211,007-000 HU-211, 1,1 dimethyl heptyl-(3 S,4S)-7-hydroxy-Δ^6-tetrahydrocannabinol, reference compound]
cannabimimetic activity [1]: inactive | Mortality rate [2]: 9% | reduction of infarct size [2]: 48% | inhibition of kainic acid binding [3]: unable to inhibit | ED50 [4]: 25 µmol/kg | inhibition of AMPA binding [5]: unable to inhibit

CCCCCCC(C)(C)c1cc(O)c2c(c1)OC(C)(C)[C@H]1CC=C(Cn3ccnc3)C[C@H]21 (single isomer, unassigned) [211,095-000]
Mortality rate [2]: No mortality | reduction of infarct size [2]: 60% | Behavioral / Neurological outcome ([2]; compared to the other treatment groups): fewer neurological deficits and recovered faster | ED50 [4]: 29 µmol/kg
